The source of these data is patent US10668039B2, “Methods for treatment of adenoid cystic carcinoma” (THE CHILDREN'S MEDICAL CENTER CORPORATION, priority 2016, dated 2020).

This assay relates to ACC PDX models. Description: ATRA comparison TGI studies in ACC PDX models. It is filed as in vivo. The conditions noted are these: ATRA 8 mg/kg to 32 mg/kg; tamibarotene 2 mg/kg. The procedure: The TGI studies in ACC PDX models were repeated in order to compare the original ATRA dose (3 or 4 mg/ml) against a more physiologically relevant dose of ATRA (8 mg/kg) and an alternative retinoid Tamibarotene (originally developed for ATRA-resistant cancer settings, approved in Japan and currently in development at Syros Pharmaceuticals).

Turning to `CC1(C)CCC(C)(C)c2cc(NC(=O)c3ccc(C(=O)O)cc3)ccc21` [tamibarotene, 4-[(1,1,4,4-tetramethyltetralin-6-yl)carbamoyl]benzoic acid], the “tumor growth inhibition in the PDX studies” value is on record as “showed tumor growth inhibition”.
